{"source": "patent US10471092B2", "about": "“Combination of hyaluronic acid and macrogol and pharmaceutical compositions containing it” (APHARM S.r.l., priority 2015, dated 2019)", "type_in_all_cases": "in vivo, rat", "key": {"rats [1]": {"system": "rats", "assay": "Intestinal transit, activated carbon feed (method of Schulz et al)", "settings": "for % of increase of intestinal transit with respect to: rats", "procedure": "(§1) Intestinal transit, colon peristalsis and the amount of stool expelled have been evaluated on rats, after the administration of different individual doses of macrogol and sodium hyaluronate and of the combination of the invention.\nOn the other hand, such a parameter is increased with a dose-response behavior at the same doses by adding 0.3 ml of water administered per os. as well. In fact, the percentage increase values range from +10% at the 365 mg/kg p.o. dose of PEG to +23% at the 1560 mg/kg p.o. dose. […] Interesting results, under the same experimental conditions, have been obtained with the combination of PEG and sodium hyaluronate.\nThe experiment has been carried out following the method of Schulz et al (NS Arch. Pharmacol. 308:255-260, 1979) by using an activated carbon feed. 1.5 ml of a 20% (w/v) activated carbon suspension in a 5% (w/v) gum arabic solution has been administered by gavage to 24 hrs starved rats with free access to water. The rats have been sacrificed 10 min after receiving the activated carbon feed and their intestine has been completely removed. The transit in the small intestine has been calculated for each rat as the ratio between the traveled distance of the activated carbon feed and the total length of the intestine itself. Data are expressed as the percentage of transit in treated rats with respect to controls that have been considered as 100. Administration of the preparations occurred 30 min before sacrificing the animal."}, "rats [2]": {"system": "rats", "assay": "Colon propulsion, glass bead expulsion from distal colon (Raffa et al.; Lopez)", "excerpt": "as §1\nIn this case all the values are significant with respect to the same treatment without water. […] Analogously to what observed in tab. […] The reduction of expulsion time results to be dose dependent, being in all the cases clearly evident and statistically significant with respect to the PEG+water dose. […] Propulsion of distal colon has been measured according to the method of Raffa et al. (Life Sci., 41: 2229-34, 1987) and of Lopez (Dig. Dis. Sci., 29:551, 1984). 30 min after the administration of the preparations, a 5 mm diameter glass bead has been inserted in the distal colon of each rat at 3 cm from the anus. The parameter taken as the reference was the time required by each rat to expel the bead. The lower the expulsion time, the highest the colon propulsion."}, "rats [3]": {"system": "rats", "assay": "Evaluation of the amount of stool (number of expelled pellets)", "procedure": "as §1\nIn Table 3 it is possible to observe an increase in the number of expelled pellets from the rat after the PEG (365-1460 mg/kg p.o. without water and […] p.o. with water) and 20-50 mg/kg hyaluronate treatment in both conditions. […] A greater number of expelled pellets have been induced by the combination of 730 mg/kg p.o. PEG with 30 and 50 mg/kg p.o. sodium hyaluronate+water. […] By administering a dose of 487 mg/kg PEG+50 mg/kg p.o. sodium hyaluronate+water, the number of expelled pellets is equal to that one that can be observed with 730 mg/kg p.o. PEG and 30 mg/kg p.o. sodium hyaluronate. […] The stool expulsion has been monitored for each rat, starting from 1 h after the administration of the preparations (Martinez e Taché, Brain Res. 893: 29-35, 2001)."}, "[4]": {"settings": "20 mg/kg p.o. IALURONATE, no water"}, "[5]": {"settings": "30 mg/kg p.o. IALURONATE, no water"}, "[6]": {"settings": "50 mg/kg p.o. IALURONATE, no water"}}, "note": "Where “and” joins values, the source holds several entries; their conditions need not be identical. Identical values can stand only once."}
{"substance": "sodium hyaluronate [IALURONATE]", "values": [{"measurement": "% of increase of intestinal transit with respect to", "setting": "rats [1]; 20 mg/kg p.o. IALURONATE + Water 0.3 ml", "value": 17.0, "unit": "%"}, {"measurement": "% of increase of intestinal transit with respect to", "setting": "rats [1]; [4]", "value": 0, "unit": "%"}, {"measurement": "% of increase of intestinal transit with respect to", "setting": "rats [1]; 30 mg/kg p.o. IALURONATE + Water 0.3 ml", "value": 19.6, "unit": "%"}, {"measurement": "% of increase of intestinal transit with respect to", "setting": "rats [1]; [5]", "value": 3.8, "unit": "%"}, {"measurement": "% of increase of intestinal transit with respect to", "setting": "rats [1]; 50 mg/kg p.o. IALURONATE + Water 0.3 ml", "value": 20.3, "unit": "%"}, {"measurement": "% of increase of intestinal transit with respect to", "setting": "rats [1]; [6]", "value": 4.2, "unit": "%"}, {"measurement": "intestinal transit", "setting": "rats [1]; sodium hyaluronate 20-50 mg/kg p.o., without simultaneous intake of water, rat", "value": "does not induce an increase"}, {"measurement": "Bead Expulsion time", "setting": "rats [2]; 20 mg/kg p.o. IALURONATE + Water 0.3 ml, rats", "value": "129 ± 14", "unit": "s"}, {"measurement": "Bead Expulsion time", "setting": "rats [2]; 20 mg/kg p.o. IALURONATE, no water, rats", "value": "195 ± 12", "unit": "s"}, {"measurement": "Bead Expulsion time", "setting": "rats [2]; 30 mg/kg p.o. IALURONATE + Water 0.3 ml, rats", "value": "120 ± 11", "unit": "s"}, {"measurement": "Bead Expulsion time", "setting": "rats [2]; 30 mg/kg p.o. IALURONATE, no water, rats", "value": "191 ± 16", "unit": "s"}, {"measurement": "Bead Expulsion time", "setting": "rats [2]; 50 mg/kg p.o. IALURONATE + Water 0.3 ml, rats", "value": "114 ± 15", "unit": "s"}, {"measurement": "Bead Expulsion time", "setting": "rats [2]; 50 mg/kg p.o. IALURONATE, no water, rats", "value": "188 ± 21", "unit": "s"}, {"measurement": "expulsion time of the bead", "setting": "rats [2]; sodium hyaluronate 20-50 mg/kg p.o. by gavage, no water, rats", "value": "does not modify"}, {"measurement": "expulsion time of the bead", "setting": "rats [2]; sodium hyaluronate 20-50 mg/kg p.o., rat intakes water (0.2 ml)", "value": "the effect is very evident"}, {"measurement": "No of pellets after 60 min", "setting": "rats [3]; 20 mg/kg p.o. IALURONATE + Water 2 ml", "value": 2}, {"measurement": "No of pellets after 60 min", "setting": "rats [3]; [4]", "value": 0}, {"measurement": "No of pellets after 60 min", "setting": "rats [3]; 30 mg/kg p.o. IALURONATE + Water 2 ml", "value": 2}, {"measurement": "No of pellets after 60 min", "setting": "rats [3]; [5]", "value": 1}, {"measurement": "No of pellets after 60 min", "setting": "rats [3]; 50 mg/kg p.o. IALURONATE + Water 2 ml", "value": 3}, {"measurement": "No of pellets after 60 min", "setting": "rats [3]; [6]", "value": 1}]}
{"substance": "polyethylene glycol [PEG]", "values": [{"measurement": "% of increase of intestinal transit with respect to", "setting": "rats [1]; 365 mg/kg p.o. PEG + Water 0.3 ml", "value": "10% and 10.8%"}, {"measurement": "% of increase of intestinal transit with respect to", "setting": "rats [1]; 365 mg/kg p.o. PEG, no water", "value": 9.4, "unit": "%"}, {"measurement": "% of increase of intestinal transit with respect to", "setting": "rats [1]; 487 mg/kg p.o. PEG + Water 0.3 ml", "value": 11.5, "unit": "%"}, {"measurement": "% of increase of intestinal transit with respect to", "setting": "rats [1]; 730 mg/kg p.o. PEG + Water 0.3 ml", "value": 15.3, "unit": "%"}, {"measurement": "% of increase of intestinal transit with respect to", "setting": "rats [1]; 730 mg/kg p.o. PEG, no water", "value": 6.7, "unit": "%"}, {"measurement": "% of increase of intestinal transit with respect to", "setting": "rats [1]; 973 mg/kg p.o. PEG + Water 0.3 ml", "value": 18.6, "unit": "%"}, {"measurement": "% of increase of intestinal transit with respect to", "setting": "rats [1]; 973 mg/kg p.o. PEG, no water", "value": 8.8, "unit": "%"}, {"measurement": "% of increase of intestinal transit with respect to", "setting": "rats [1]; 1460 mg/kg p.o. PEG, no water", "value": 8.6, "unit": "%"}, {"measurement": "% of increase of intestinal transit with respect to", "setting": "rats [1]; 1560 mg/kg p.o. PEG + Water 0.3 ml", "value": "23% and 23.2%"}, {"measurement": "intestinal motility", "setting": "rats [1]; PEG by gavage, 365 to 1460 mg/kg p.o., without water, rat", "value": "does not induce a significant increase"}, {"measurement": "Bead Expulsion time", "setting": "rats [2]; 365 mg/kg p.o. PEG + Water 0.3 ml, rats", "value": "153 ± 13", "unit": "s"}, {"measurement": "Bead Expulsion time", "setting": "rats [2]; 365 mg/kg p.o. PEG, no water, rats", "value": "202 ± 11", "unit": "s"}, {"measurement": "Bead Expulsion time", "setting": "rats [2]; 487 mg/kg p.o. PEG + Water 0.3 ml, rats", "value": "135 ± 19", "unit": "s"}, {"measurement": "Bead Expulsion time", "setting": "rats [2]; 730 mg/kg p.o. PEG + Water 0.3 ml, rats", "value": "128 ± 16", "unit": "s"}, {"measurement": "Bead Expulsion time", "setting": "rats [2]; 730 mg/kg p.o. PEG, no water, rats", "value": "181 ± 9", "unit": "s"}, {"measurement": "Bead Expulsion time", "setting": "rats [2]; 973 mg/kg p.o. PEG + Water 0.3 ml, rats", "value": "116 ± 18", "unit": "s"}, {"measurement": "Bead Expulsion time", "setting": "rats [2]; 973 mg/kg p.o. PEG, no water, rats", "value": "185 ± 12", "unit": "s"}, {"measurement": "Bead Expulsion time", "setting": "rats [2]; 1460 mg/kg p.o. PEG, no water, rats", "value": "173 ± 15", "unit": "s"}, {"measurement": "Bead Expulsion time", "setting": "rats [2]; 1560 mg/kg p.o. PEG + Water 0.3 ml, rats", "value": "93 ± 9", "unit": "s"}, {"measurement": "colon propulsion activity", "setting": "rats [2]; PEG 365 to 1560 mg/kg p.o. with simultaneous intake of water, vs same treatment without water, rats", "value": "statistically significant effect"}, {"measurement": "colon propulsion activity", "setting": "rats [2]; PEG alone, without simultaneous administration of water by gavage, rats", "value": "does not modify"}, {"measurement": "No of pellets after 60 min", "setting": "rats [3]; 365 mg/kg p.o. PEG + Water 2 ml", "value": 0}, {"measurement": "No of pellets after 60 min", "setting": "rats [3]; 365 mg/kg p.o. PEG, no water", "value": 0}, {"measurement": "No of pellets after 60 min", "setting": "rats [3]; 487 mg/kg p.o. PEG + Water 2 ml", "value": 2}, {"measurement": "No of pellets after 60 min", "setting": "rats [3]; 730 mg/kg p.o. PEG + Water 2 ml", "value": 3}, {"measurement": "No of pellets after 60 min", "setting": "rats [3]; 730 mg/kg p.o. PEG, no water", "value": 0}, {"measurement": "No of pellets after 60 min", "setting": "rats [3]; 973 mg/kg p.o. PEG + Water 2 ml", "value": 3}, {"measurement": "No of pellets after 60 min", "setting": "rats [3]; 973 mg/kg p.o. PEG, no water", "value": 1}, {"measurement": "No of pellets after 60 min", "setting": "rats [3]; 1460 mg/kg p.o. PEG, no water", "value": 1}, {"measurement": "No of pellets after 60 min", "setting": "rats [3]; 1560 mg/kg p.o. PEG + Water 2 ml", "value": 3}]}
